{
  "source": "patent US20220409578A1",
  "about": "“FUNCTIONALIZED 1,3-BENZENE DIOLS AND THEIR METHOD OF USE FOR THE TREATMENT OF RADIATION DERMATITIS AND OTHER SKIN DISORDERS” (KANNALIFE SCIENCES, INC., priority 2019, published 2022)",
  "format_in_all_cases": "cell-based",
  "key": {"[1]": {"test_system": "TNFα", "assay": "TNFα release from UV-B irradiated human epidermal keratinocytes (ELISA)", "conditions": "Keratinocyte, light or radiation study, UV-B 25 mJ/cm^2 (280-312 nm), read-out: IC50 of TNFα inhibition", "experimental": "Normal human epidermal keratinocytes cultures were utilized to measure the release of proinflammatory cytokines and chemokines. Primary epidermal keratinocytes from neonatal donors were used from human origin and purchased from Thermo-Fisher (Cat No. A13401). […] Cells were cultured until the second passage and then acclimated for 48 hours more before UV-B irradiation. Dosing procedures and cell groups were identified using appropriate cell culture 24-well plates. The cell culture incubator was set at 5% v/v CO2 with temperature and humidity maintained at 36-38° C. and 40-70%, respectively. The test and control substances were administered to HKGS-depleted medium in triplicates. A fixed 5 μL/well from 100× stock dose volume was administered to 500 μL of media to each cell culture well on Day 3 and pre-incubated for 6 hours and then post-UVB incubated for 18 hours. […] Media supernatants were harvested and analyzed for TNFα and IL-1β levels by ELISA method. Cytokine levels were assessed from cell culture media supernatants using BD Biosciences OptEIA™ Human TNFα (Cat. No. 555212) and IL-1β (Cat. No. 557953) and ELISA set kit and Reagent Set B (Cat. No. 550534) according the manufacture's specifications. Absorbance was measured at 450 nm using a plate reader and calculated cytokine levels were determined from a standard curve."}, "[2]": {"test_system": "IL-6", "assay": "IL-6 release, UV-A-induced photoaging in human dermal fibroblasts (ELISA)", "conditions": "UV-A 12.5 J/cm^2 (315-400 nm)", "experimental": "Primary dermal fibroblasts cells of human origin were cultured in vitro using standard conditions (37° C., 95% v/v air, 5% v/v CO2). Primary dermal fibroblasts from neonatal donor were used from human origin and purchased from Thermo-Fisher (Cat No. C0045C). […] Cells were cultured until the second passage and then acclimated for 48 hours before UVA irradiation and dosing procedures conducted in 24-well plates. On Day 3, test materials were dosed to cell culture media and pre-incubated for 6 hours. Treatment media was then removed and replaced with phosphate buffer saline (PBS) without test materials and Ultraviolet-A (UV-A) was irradiated at 12.5 J/cm^2 using FS-20/T-12 bulbs (315-400 nm). […]\nAn Interleukin-6 assay was used to evaluate the anti-inflammatory activity of KLS-13022 formulated in ethanol and applied in vitro to cells irradiated with Ultraviolet-A (UV-A)-induced photoaging (Wlascheck et al., 1994) in human dermal fibroblasts (HDFs). […] IL-6 levels were quantified by enzyme-linked immunosorbent assay (ELISA) after inflammatory induction and incubation with test and control materials. Interleukin-6 (IL-6) levels were assessed from cell culture media supernatants using BD Biosciences OptEIA™ Human IL-6 ELISA Set kit (Cat. No. 555220). according to the manufacture's specifications. […]"}, "[3]": {"test_system": "human epidermal keratinocytes", "conditions": "24 h", "experimental": "Normal human epidermal keratinocytes cultures were utilized to measure the release of proinflammatory cytokines and chemokines. Primary epidermal keratinocytes from neonatal donors were used from human origin and purchased from Thermo-Fisher (Cat No. A13401). […] Cells were cultured until the second passage and then acclimated for 48 hours more before UV-B irradiation. Dosing procedures and cell groups were identified using appropriate cell culture 24-well plates. The cell culture incubator was set at 5% v/v CO2 with temperature and humidity maintained at 36-38° C. and 40-70%, respectively. The test and control substances were administered to HKGS-depleted medium in triplicates. A fixed 5 μL/well from 100× stock dose volume was administered to 500 μL of media to each cell culture well on Day 3 and pre-incubated for 6 hours and then post-UVB incubated for 18 hours. The same procedure was utilized to determine non-toxic concentrations of 1,3-benzene diols after 24 hours of treatment. Cell Viability assays were conducted using MTS reduction assays (Promega) diluted 1:5 in DMEM+10% FBS media as specified by the manufacturer. Absorbance was measured at 490 nm using plate reader and cell viability was calculated as a percent of control. This assay was done along with all culture systems that were utilized to study cytokine release. […]"}},
  "data": [
    {"smiles": "C=C(C)[C@@H]1CCC(C)=C[C@H]1c1c(O)cc(CC2CN(C(=O)OCC)C2)cc1O", "note": "[KLS-13022, ethyl 3-(3,5-dihydroxy-4-((1R,6R)-3-methyl-6-(prop-1-en-2-yl)cyclohex-2-enyl)benzyl)azetidine-1-carboxylate]", "values": [
      {"measurement": "IC50", "setting": "[1]", "value": 380, "unit": "nM"},
      {"measurement": "IC50", "setting": "[2]; Fibroblast, light or radiation study, read-out: IC50 of IL-6 inhibition", "value": 900, "unit": "nM"},
      {"measurement": "maximum IL-6 inhibition", "setting": "[2]", "value": 95, "unit": "%"},
      {"measurement": "non-toxic concentration range", "setting": "[3]", "value": "≤ 10", "unit": "µM"}
    ]}
  ]
}
